Experimental data reported in EP0062321A2, “New cephem compounds, processes for their preparation, pharmaceutical compositions containing them and their starting compounds” (FUJISAWA PHARMACEUTICAL CO., LTD., priority 1981, dated 1982).
Values after ≈ are worked out from the molar mass of the structure shown.

What was measured:
Pr.mirabilis 140 = assay: Minimal inhibitory concentration (MIC) by agar dilution on heart infusion agar; assay type: cell-based; settings: Proteus mirabilis, HI-agar, one loopful of overnight culture in Trypticase-soy broth (10 viable cells per ml), 37°C for 20 hours
Experimental: (§1) Now in order to show the utility of the object compounds (I), test data on anti-microbial activity of representative compounds of the present invention are shown below.
(§2) One loopful of an overnight culture of each test strain in Trypticase-soy broth (10 viable cells per ml,) was streaked on heart infusion agar (HI-agar) containing graded concentrations of antibiotics, and the minimal inhibitory concentration (MIC) was expressed in terms of µg/ml after incubation at 37°C for 20 hours.

Pr.vulgaris IAM-1025 = assay: as above; assay type: cell-based; settings: Proteus vulgaris, IAM1025, HI-agar, one loopful of overnight culture in Trypticase-soy broth (10 viable cells per ml), 37°C for 20 hours
Experimental: as §1, §2

| SMILES | MIC (Pr.mirabilis 140) [µg/mL] | MIC (Pr.vulgaris IAM-1025) [µg/mL] |
| --- | --- | --- |
| CCO/N=C(\C(=O)NC1C(=O)N2C(C(=O)[O-])=C(C[n+]3cccn3C)CSC12)c1nsc(N)n1 (stereo not drawn) [(1)] | 0.39 (≈ 0.792 µM) | 0.78 (≈ 1.58 µM) |
| CCO/N=C(\C(=O)NC1C(=O)N2C(C(=O)[O-])=C(C[n+]3ccccn3)CSC12)c1nsc(N)n1 (stereo not drawn) [(2)] | 0.39 (≈ 0.795 µM) | 0.39 (≈ 0.795 µM) |
| CO/N=C(\C(=O)NC1C(=O)N2C(C(=O)[O-])=C(C[n+]3ccccn3)CSC12)c1nsc(N)n1 (stereo not drawn) [(3)] | 0.39 (≈ 0.818 µM) | 6.25 (≈ 13.1 µM) |
